According to patent US7585895B2, “Therapeutic substituted cyclopentanes” (Allergan, Inc., priority 2005, dated 2009):

Tests used:
hDP/Gqs5 = biological target: T1, hDP/Gqs5 (Homo sapiens, UniProt Q13258); test: FLIPR calcium signal, DP; format: cell-based; conditions: HEK-293(EBNA)
T1 construct: expressed in transfected cells
T1 sequence (Q13258 1-359): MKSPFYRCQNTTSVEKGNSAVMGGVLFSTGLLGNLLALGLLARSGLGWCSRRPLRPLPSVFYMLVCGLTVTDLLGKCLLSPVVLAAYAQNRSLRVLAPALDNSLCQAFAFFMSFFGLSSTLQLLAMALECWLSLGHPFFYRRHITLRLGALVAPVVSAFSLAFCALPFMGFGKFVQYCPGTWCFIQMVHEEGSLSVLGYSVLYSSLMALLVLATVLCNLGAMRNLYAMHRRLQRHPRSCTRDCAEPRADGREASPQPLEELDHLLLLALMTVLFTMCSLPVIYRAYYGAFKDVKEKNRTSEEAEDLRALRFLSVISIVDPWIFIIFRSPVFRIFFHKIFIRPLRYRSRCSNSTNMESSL
Description: (§1) HEK-293(EBNA) cells, stably expressing one type or subtype of recombinant human prostaglandin receptors (prostaglandin receptors expressed: hDP/Gqs5; hEP1; hEP2/Gqs5; hEP3A/Gqi5; hEP4/Gqs5; hFP; hIP; hTP), were cultured in 100 mm culture dishes in high-glucose DMEM medium containing 10% fetal bovine serum, 2 mM 1-glutamine, 250 μg/ml geneticin (G418) and 200 μg/ml hygromycin B as selection markers, and 100 units/ml penicillin G, 100 μg/ml streptomycin and 0.25 μg/ml amphotericin B.
(§2) Cells were seeded at a density of 5×10^4 cells per well in Biocoat® Poly-D-lysine-coated black-wall, clear-bottom 96-well plates (Becton-Dickinson) and allowed to attach overnight in an incubator at 37° C. Cells were then washed two times with HBSS-HEPES buffer (Hanks Balanced Salt Solution without bicarbonate and phenol red, 20 mM HEPES, pH 7.4) using a Denley Cellwash plate washer (Labsystems). After 45 minutes of dye-loading in the dark, using the calcium-sensitive dye Fluo-4 AM at a final concentration of 2 μM, plates were washed four times with HBSS-HEPES buffer to remove excess dye leaving 100 μl in each well. Plates were re-equilibrated to 37° C. for a few minutes.
(§3) Cells were excited with an Argon laser at 488 nm, and emission was measured through a 510-570 nm bandwidth emission filter (FLIPR™, Molecular Devices, Sunnyvale, Calif.). Drug solution was added in a 50 μl volume to each well to give the desired final concentration. The peak increase in fluorescence intensity was recorded for each well. On each plate, four wells each served as negative (HBSS-HEPES buffer) and positive controls (standard agonists: BW245C (hDP); PGE2 (HEP1; hEP2/Gqs5; hEP3A/Gqi5; hEP4/Gqs5); PGF2α (hFP); carbacyclin (hIP); U-46619 (hTP), depending on receptor). The peak fluorescence change in each drug-containing well was then expressed relative to the controls.
(§4) Compounds were tested in a high-throughput (HTS) or concentration-response (CoRe) format. In the HTS format, forty-four compounds per plate were examined in duplicates at a concentration of 10^−5 M. To generate concentration-response curves, four compounds per plate were tested in duplicates in a concentration range between 10^−5 and 10^−11 M. The duplicate values were averaged. In either, HTS or CoRe format each compound was tested on at least 3 separate plates using cells from different passages to give an n≧3.

hIP = biological target: T2, hIP (Homo sapiens, UniProt P43119); test: FLIPR calcium signal, IP; format: cell-based; conditions: HEK-293(EBNA); for EC50: read-out: Ca2+ Signal-EC50 (nM) IP
T2 construct: expressed in transfected cells
Description: as §1, §2, §3, §4

EP2 = EP2 (Homo sapiens, UniProt P43116); test: Competition binding, [3H]PGE2, EP2 (Ki); parameters: expressed in transfected cells; membranes or whole cells; conditions: HEK 293 cells stably expressing human EP2, [3H]PGE2
Description: Competition binding experiments were performed in a medium containing Hank's balanced salt solution, Hepes 20 mM, pH 7.3, membranes (˜60 μg protein) or 2×10^5 cells from HEK 293 cells stably expressing human EP2 receptors, [^3H]PGE2 (10 nM) and various concentrations of test compounds in a total volume of 300 μl. Reaction mixtures were incubated at 23° C. for 60 min, and were filtered over Whatman GF/B filters under vacuum. Filters were washed three times with 5 ml ice-cold buffer containing 50 mM Tris/HCl (pH 7.3). Non-specific binding was estimated in the presence of excess unlabeled PGE2 (10 μM). Binding data fitted to the binding model for a single class of binding sites, using nonlinear regression analysis. IC50 values thus obtained were converted to Ki using the equation of Ki=(IC50/(1+[L]/KD) where [L] represents PGE2 concentration (10 nM) and KD the dissociation constant for [^3H]PGE2 at human EP2 receptors (40 nM).
HEK-293 cells stably expressing the human or feline FP receptor, or EP1, EP2, or EP4 receptors were washed with TME buffer, scraped from the bottom of the flasks, and homogenized for 30 sec using a Brinkman PT 10/35 polytron. TME buffer was added to achieve a final 40 ml volume in the centrifuge tubes (the composition of TME is 100 mM TRIS base, 20 mM MgCl2, […]; 10N HCl is added to achieve a pH of 7.4).
The cell homogenate was centrifuged at 19000 r.p.m. for 20 min at 4° C using a Beckman Ti-60 rotor. The resultant pellet was resuspended in TME buffer to give a final 1 mg/ml protein concentration, as determined by Biorad assay. Radioligand binding competition assays vs. [^3H-]17-phenyl PGF2α. (5 nM) were performed in a 100 μl volume for 60 min. Binding reactions were started by adding plasma membrane fraction. The reaction was terminated by the addition of 4 ml ice-cold TRIS-HCl buffer and rapid filtration through glass fiber GF/B filters using a Brandel cell harvester. The filters were washed 3 times with ice-cold buffer and oven dried for one hour.
[^3H-] PGE2 (specific activity 180 Ci mmol) was used as the radioligand for EP receptors. [^3H] 17-phenyl PGF2α, was employed for FP receptor binding studies. Binding studies employing EP1, EP2, EP4 and FP receptors were performed in duplicate in at least three separate experiments. A 200 μl assay volume was used. Incubations were for 60 min at 25° C. and were terminated by the addition of 4 ml of ice-cold 50 mM TRIS-HCl, followed by rapid filtration through Whatman GF/B filters and three additional 4 ml washes in a cell harvester (Brandel). Competition studies were performed using a final concentration of 5 nM [^3H]-PGE2, or 5 nM [^3H] 17-phenyl PGF2αand non-specific binding determined with 10^−5M of unlabeled PGE2, or 17-phenyl PGF2α, according to receptor subtype studied.

T2 sequence (P43119 whole entry): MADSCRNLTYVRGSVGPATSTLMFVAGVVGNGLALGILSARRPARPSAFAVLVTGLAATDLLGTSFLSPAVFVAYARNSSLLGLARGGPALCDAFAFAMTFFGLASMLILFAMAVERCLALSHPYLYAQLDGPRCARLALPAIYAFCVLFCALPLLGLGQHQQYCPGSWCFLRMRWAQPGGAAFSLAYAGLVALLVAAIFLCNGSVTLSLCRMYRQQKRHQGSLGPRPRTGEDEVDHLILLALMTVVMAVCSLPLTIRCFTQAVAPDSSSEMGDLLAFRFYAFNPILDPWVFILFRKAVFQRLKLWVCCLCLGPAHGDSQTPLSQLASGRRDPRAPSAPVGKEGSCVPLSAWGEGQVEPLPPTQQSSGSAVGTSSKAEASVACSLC
Chain of EP2 (P43116 whole entry): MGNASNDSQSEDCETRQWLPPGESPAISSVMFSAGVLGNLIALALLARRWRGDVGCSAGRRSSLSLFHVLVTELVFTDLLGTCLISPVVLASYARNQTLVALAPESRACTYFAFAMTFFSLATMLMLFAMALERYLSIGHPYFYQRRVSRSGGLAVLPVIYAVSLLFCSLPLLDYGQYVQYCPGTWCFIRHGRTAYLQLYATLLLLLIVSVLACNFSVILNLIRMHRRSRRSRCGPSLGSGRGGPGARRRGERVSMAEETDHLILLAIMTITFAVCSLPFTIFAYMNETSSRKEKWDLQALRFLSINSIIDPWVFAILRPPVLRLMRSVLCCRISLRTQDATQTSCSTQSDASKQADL

SMILES | Ca2+ Signal-EC50 (nM) DP (hDP/Gqs5) | EC50 (hIP) [nM] | Ki (EP2) [nM] | Ca2+ Signal-EC50 (nM) IP (hIP)
CCCCCC(O)c1ccc([C@@H]2[C@@H](C/C=C\CCCC(=O)O)[C@H](F)C[C@H]2O)cc1 (mixture of isomers) [Entry 8, (Z)-7-{(1R,2S,3R,5R)-5-Fluoro-3-hydroxy-2-[4-(1-hydroxy-hexyl)-phenyl]-cyclopentyl}-hept-5-enoic acid] | not active | 10100 | 804 | 
CCCCCC(O)c1ccc([C@@H]2[C@@H](C/C=C\CCCC(=O)O)[C@H](Cl)C[C@H]2O)cc1 (mixture of isomers) [Entry 11, (Z)-7-{(1R,2S,3R,5R)-5-Chloro-3-hydroxy-2-[4-(1-hydroxy-hexyl)-phenyl]-cyclopentyl}-hept-5-enoic acid] | not active |  | 209 | not active
O=C(O)CCC/C=C\C[C@@H]1[C@@H](c2ccc(C(O)CC3CCCCC3)cc2)[C@H](O)C[C@H]1Cl (mixture of isomers) [Entry 17, (Z)-7-{(1R,2S,3R,5R)-5-Chloro-2-[4-(2-cyclohexyl-1-hydroxy-ethyl)-phenyl]-3-hydroxy-cyclopentyl}-hept-5-enoic acid] | not active |  | 483 | not active
CC(C)(C)CCCC(O)c1ccc([C@@H]2[C@@H](CCCCCCC(=O)O)[C@H](Cl)C[C@H]2O)cc1 (mixture of isomers) [Entry 20, 7-{(1R,2S,3R,5R)-5-Chloro-3-hydroxy-2-[4-(1-hydroxy-5,5-dimethyl-hexyl)-phenyl]-cyclopentyl}-heptanoic acid] | not active |  | 3850 | not active
O=C(O)CCC/C=C\C[C@@H]1[C@@H](c2ccc(C(O)Cc3ccccc3)cc2)[C@H](O)C[C@H]1Cl (mixture of isomers) [Entry 21, (Z)-7-{(1R,2S,3R,5R)-5-Chloro-3-hydroxy-2-[4-(1-hydroxy-2-phenyl-ethyl)-phenyl]-cyclopentyl}-hept-5-enoic acid] | not active |  | 77 | not active
CCCCC(O)c1ccc([C@@H]2[C@@H](C/C=C\CCCC(=O)O)[C@H](Cl)C[C@H]2O)cc1 (mixture of isomers) [Entry 27, (Z)-7-{(1R,2S,3R,5R)-5-Chloro-3-hydroxy-2-[4-(1-hydroxy-pentyl)-phenyl]-cyclopentyl}-hept-5-enoic acid] | not active |  | 589 | not active
CCCCC(O)C(C)(C)c1ccc([C@@H]2[C@@H](C/C=C\CCCC(=O)O)[C@H](Cl)C[C@H]2O)cc1 (mixture of isomers) [Entry 32, (Z)-7-{(1R,2S,3R,5R)-5-Chloro-3-hydroxy-2-[4-(2-hydroxy-1,1-dimethyl-hexyl)-phenyl]-cyclopentyl}-hept-5-enoic acid] | not active |  | 225 | not active
CCCCCC(O)c1ccc([C@@H]2[C@@H](C/C=C\CCCC(=O)O)[C@H](Cl)C[C@H]2O)cc1 (single isomer, unassigned) [Entry 12] | not active |  | 209 | not active
CCCCCC(O)c1ccc([C@@H]2[C@@H](C/C=C\CCCC(=O)O)[C@H](Cl)C[C@H]2O)cc1 (single isomer, unassigned) [Entry 13] | not active |  | 73 | not active
CCCCCC(O)c1ccc([C@@H]2[C@@H](CCCc3ccc(C(=O)O)s3)[C@H](Cl)C[C@H]2O)cc1 (stereo partly drawn) [Entry 2, 5-(3-{(1R,2S,3R,5R)-5-Chloro-3-hydroxy-2-[4-(1-hydroxy-hexyl)-phenyl]-cyclopentyl}-propyl)-thiophene-2-carboxylic acid] | not active |  | 24 | not active
CCCCCC(O)c1ccc([C@@H]2[C@@H](Cc3cccc(CCC(=O)O)c3)[C@H](Cl)C[C@H]2O)cc1 (stereo partly drawn) [Entry 3, 3-(3-{(1R,2S,3R,5R)-5-Chloro-3-hydroxy-2-[4-(1-hydroxy-hexyl)-phenyl]-cyclopentylmethyl}-phenyl)-propionic acid] | not active |  | 2780 | not active
CCCC1(C(O)c2cccc([C@@H]3[C@@H](Cc4cccc(CCC(=O)O)c4)[C@H](Cl)C[C@H]3O)c2)CCC1 (stereo partly drawn) [Entry 4, 3-[3-((1R,2S,3R,5R)-5-Chloro-3-hydroxy-2-{3-[hydroxy-(1-propyl-cyclobutyl)-methyl]-phenyl}-cyclopentylmethyl)-phenyl]-propionic acid] | not active |  | > 10000 | not active
O=C(O)CCC/C=C\C[C@@H]1[C@@H](c2ccc(C(O)c3ccccc3)cc2)[C@H](O)C[C@H]1Cl (stereo partly drawn) [Entry 28, (Z)-7-{(1R,2S,3R,5R)-5-Chloro-3-hydroxy-2-[4-(hydroxy-phenyl-methyl)-phenyl]-cyclopentyl}-hept-5-enoic acid] |  | 1650 | 564 | 
